The text below walks through data of patent US20030180385A1 (priority 2002, published 2003).

The subject of one assay is barley seeds. As to conditions: in vivo.
The subject of a further assay is Fusarium graminearum. It is filed as cell-based. As to conditions: for % of Fusarium graminearum: barley var. Lacey.
A further assay relates to bacteria. It is filed as cell-based.
The conditions of assay [1]: 8 hours steeping.
The next assay concerns Alternaria spp. It is filed as cell-based. Particulars: barley var. Lacey.
Assay [2] can be described thus: DON variation during the malting process. Particulars: for % DON reduction: H process. Here is the method:
The goal of this experiment was to follow the main steps of malt production for DON increase or decrease when barley seeds were submitted to the hypochlorite process during the first steeping, compared with the same seed not submitted to the hypochlorite process. Two samples of 1000 grams of barley seeds infected with 3.2 ppm of DON were malted and their DON contents were measured during the following steps:
1. On 50 grams of seeds just after the first steeping (7 hours steep)
2. On 50 grams of seeds just after the second steeping (5 hours steep)
3. On 50 grams of seeds on the second day of malting (half malting)
4. On 50 grams of seeds on the fourth day of malting (end of malting)
5. On 50 grams of seeds after the fist step of kilning (6 hours at 45° C.)
6. On 50 grams of seeds after the second step of kilning (3 hours at 65° C.)
7. On 50 grams of seeds after the third step of kilning (2 hours at 85° C.)
8. Control (dry seeds without treatment).

The subject of a further assay is Fusarium. As to conditions: literature reports; cited from earlier work.
The conditions of assay [3]: wheat seeds; 1% concentration; cited from earlier work.
Where [4] appears, read: Table 6, means of 50 seeds plated in ¼ PDA medium.

The structures appear in SMILES notation. Where two headings read alike, the source gives them in different places. Marks after values point to notes of the source that are not given here. Bounds are passed on as bounds.

On to `CC(=O)O` [Ac. Ac. Glacial 0.5, glacial acetic acid], for which the “Germin. (%)” value with barley seeds is listed as 8%. Besides, in the assay with Fusarium graminearum (Table 4, 8 hours steeping), the “Fusarium (%)” value is 4%. Also, in the assay with bacteria, the “Bacteria (%)” value is given as 2%. The “Total % of DON reduction” value in assay [1] (Table 4) is listed as 62.9%. Moreover, in assay [1] (Table 4, dry seeds 9.7), the DON was 3.6 µg/mL.
For `CC(=O)O` [Ac. Ac. Glacial 0.25%, glacial acetic acid], in that order: 64%, 2%, 6%, 71.1% and 2.8 µg/mL.
As to `CC(=O)O` [Ac. Ac. Glacial 1.0, glacial acetic acid], the “Germin. (%)” value with barley seeds amounted to 0%. The “Fusarium (%)” value in the assay on Fusarium graminearum (Table 4, 8 hours steeping) stood at 2%. The “Bacteria (%)” value with bacteria worked out at 0%. Also, the “Total % of DON reduction” value in assay [1] (Table 4) was found to be 71.1%. The compound also gave a DON in assay [1] (Table 4, dry seeds 9.7) of 2.8 µg/mL.
`CC(=O)OO` [Ac. Perac. 0.1%, peracetic acid]: in the assay with barley seeds, the “Germin. (%)” value was 94%. The “Fusarium (%)” value with Fusarium graminearum came to 56%. For the same compound, the “Bacteria (%)” value in the assay with bacteria came out at 48%.
Turning to `CC(=O)OO` [Ac. Perac. 0.5%, peracetic acid], the “Germin. (%)” value in the assay with barley seeds was determined as 28%. Also, the “Fusarium (%)” value with Fusarium graminearum is listed as 4%. The “Bacteria (%)” value with bacteria is recorded as 28%.
As for `CC(=O)OO` [Ac. Perac. 0.25%, peracetic acid], the “Germin. (%)” value in the assay on barley seeds turned out to be 76%. In the assay on Fusarium graminearum, the “Fusarium (%)” value is 2%. In addition, in the assay with bacteria, the “Bacteria (%)” value came out at 62%.
Turning to `CC(=O)OO` [Ac. Perac. 1.0%, peracetic acid], the “Germin. (%)” value in the assay with barley seeds turned out to be 0%. For the same compound, the “Fusarium (%)” value in the assay with Fusarium graminearum came out at 4%. Also, in the assay on bacteria, the “Bacteria (%)” value is recorded as 4%.
As for `CC(=O)OO` [Ac. Perac. 2.0%, peracetic acid], the “Germin. (%)” value with barley seeds was 0%. The “Fusarium (%)” value in the assay on Fusarium graminearum was found to be 2%. In the assay on bacteria, the “Bacteria (%)” value is 0%.
Regarding `CCO` [Alco. 1%, Alcohol], the “Germin. (%)” value in the assay on barley seeds is 72%. Besides, the “Fusarium (%)” value in the assay with Fusarium graminearum was 94%. In the assay on bacteria, the “Bacteria (%)” value turned out to be 94%.
`CCO` [Alco. 10%, Alcohol]: the “Germin. (%)” value in the assay on barley seeds is recorded as 2%. Further, the “Fusarium (%)” value in the assay on Fusarium graminearum is reported as 44* %. In addition, the “Bacteria (%)” value in the assay on bacteria was 100%.
With `CCOC(C)=O` [Eth. Ac. 1%, Ethyl Acetate], in the assay on barley seeds, the “Germin. (%)” value stood at 6%. For the same compound, the “Fusarium (%)” value in the assay with Fusarium graminearum (Table 3, 8 hours steeping) is 88%. Besides, the “Bacteria (%)” value in the assay with bacteria is on record as 90%. Besides, the “Total % of DON reduction” value in assay [1] (Table 3) is on record as 68%. The DON in assay [1] (Table 3, dry seeds 10.9) stood at 3.5 µg/mL.
`CCOC(C)=O` [Eth. Ac. 10%, Ethyl Acetate]: the “Germin. (%)” value with barley seeds is recorded as 0%. Moreover, in the assay with Fusarium graminearum (Table 3, 8 hours steeping), the “Fusarium (%)” value came to 0%. The “Bacteria (%)” value in the assay on bacteria is on record as 4%. Further, the “Total % of DON reduction” value in assay [1] (Table 3) was found to be 70%. This compound also showed a DON in assay [1] (Table 3, dry seeds 10.9) of 3.3 µg/mL.
`OO` [H2O2 1.0%, peroxide]: the “Germin. (%)” value in the assay with barley seeds is 94%. In the assay with Fusarium graminearum, the “Fusarium (%)” value worked out at 38%. Moreover, the “Bacteria (%)” value in the assay on bacteria turned out to be 47%.
As for `OO` [H2O2 3.0%, peroxide], in the assay on barley seeds, the “Germin. (%)” value turned out to be 92%. For the same compound, in the assay with Fusarium graminearum, the “Fusarium (%)” value worked out at 20%. In addition, in the assay on bacteria, the “Bacteria (%)” value came out at 62%.
As for `OCl` [Hypochlorite 0.8%, hypochlorite], the “% Germination” value with barley seeds was found to be 88%. In the assay with barley seeds, the “Germin. (%)” value was found to be 80%. The “Fusarium (%)” value in the assay on Fusarium graminearum (Table 4, 8 hours steeping) turned out to be 2%. Further, the “% Fusarium” value in the assay on Fusarium graminearum (setting [4]) turned out to be 8%. Also, the results for the “% of Fusarium graminearum” value in the assay with Fusarium graminearum (2 min. disinfestations) and in the assay with Fusarium graminearum (3 min. disinfestations) were 20% and 18%, respectively. Also, the “% Bacteria” value in the assay with bacteria turned out to be 0%. The “Bacteria (%)” value with bacteria is on record as 2%. Moreover, the “Total % of DON reduction” value in assay [1] (Table 4) came out at 87.6%. In assay [1] (Table 4, dry seeds 9.7), this compound came in with a DON of 1.2 µg/mL. Moreover, the “% of Alternaria spp.” value with Alternaria spp. (2 min. disinfestations) is recorded as 66%; in the assay on Alternaria spp. (3 min. disinfestations) it was 68%.
`[K+].[OH-]` [KOH (0.5%), potassium hydroxide]: in the assay with barley seeds, the “% Germination” value came out at 96%. Further, the “% Fusarium” value with Fusarium graminearum was determined as 44%. Further, in the assay on bacteria, the “% Bacteria” value is recorded as 44%.
For `[K+].[OH-]` [KOH (0.25%), potassium hydroxide], the “% Germination” value with barley seeds came out at 94%. Besides, the “% Fusarium” value in the assay with Fusarium graminearum is recorded as 76%. For the same compound, in the assay with bacteria, the “% Bacteria” value came to 82%.
On to `O=P([O-])([O-])O.[Na+].[Na+]` [Na2HPO4 (0.5%), sodium phosphate dibasic], for which the “% Germination” value with barley seeds is reported as 94%. Moreover, in the assay on Fusarium graminearum (setting [4]), the “% Fusarium” value is given as 70%. In the assay on bacteria, the “% Bacteria” value is on record as 72%.
For `O=P([O-])([O-])O.[Na+].[Na+]` [Na2HPO4 (0.25%), sodium phosphate dibasic], in that order: 98%, 68% and 68%.
For `O=C([O-])O.[Na+]` [NaHCO3 (0.5%), sodium bicarbonate] the same measures were 88%, 72% and 84%.
For `O=C([O-])O.[Na+]` [NaHCO3 (0.25%), sodium bicarbonate], the “% Germination” value in the assay with barley seeds stood at 90%. Besides, the “% Fusarium” value with Fusarium graminearum (setting [4]) is 52%. The “% Bacteria” value in the assay on bacteria came out at 70%.
In the case of `[Na+].[OH-]` [NaOH 0.1%, sodium hydroxide], the “Germin. (%)” value in the assay with barley seeds amounted to 76%. Besides, the “Fusarium (%)” value with Fusarium graminearum amounted to 76%. The “Bacteria (%)” value in the assay with bacteria is 74%.
For the compound `[Na+].[OH-]` [NaOH 0.5%, sodium hydroxide], in the assay with barley seeds, the “% Germination” value stood at 96% and the “Germin. (%)” value came to 88%. For the same compound, in the assay on Fusarium graminearum, the “% Fusarium” value turned out to be 40% and the “Fusarium (%)” value was found to be 68%. Further, in the assay with bacteria, the “% Bacteria” value is recorded as 8% and the “Bacteria (%)” value was determined as 50%.
For the compound `[Na+].[OH-]` [NaOH 0.25%, sodium hydroxide], in the assay with barley seeds, the “% Germination” value is listed as 94% and the “Germin. (%)” value came out at 96%. For the same compound, in the assay on Fusarium graminearum, the “% Fusarium” value is reported as 44% and the “Fusarium (%)” value is given as 88%. For the same compound, in the assay on bacteria, the “% Bacteria” value is 44% and the “Bacteria (%)” value is reported as 80%.
Turning to `[Na+].[OH-]` [NaOH 1.0%, sodium hydroxide], the “Germin. (%)” value in the assay with barley seeds is reported as 66%. The “Fusarium (%)” value in the assay with Fusarium graminearum is 2%. In addition, in the assay with bacteria, the “Bacteria (%)” value worked out at 6%.
Turning to `[Cl-].[Na+]` [Salt 1%, NaCl], the “Germin. (%)” value in the assay on barley seeds is listed as 72%. Also, in the assay with Fusarium graminearum (Table 3, 8 hours steeping), the “Fusarium (%)” value is on record as 90%. In addition, the “Bacteria (%)” value in the assay on bacteria was 76%. The “Total % of DON reduction” value in assay [1] (Table 3) worked out at 71%. Further, the DON in assay [1] (Table 3, dry seeds 10.9) came to 3.1 µg/mL.
For `[Cl-].[Na+]` [Salt 5%, NaCl] the same measures were 80%, 84%, 78%, 77% and 2.5 µg/mL.
With `OCl` [hypochlorite], the “DON levels on "H" process (b)” value in assay [2] (1. After the first steeping, seeds with 3.2 ppm DON) is 0.7 ppm; in assay [2] (2. After the second steeping) it was 0.4 ppm; in assay [2] (3. Second day of malting), 0.4 ppm; in assay [2] (4. Fourth day of malting), 0.4 ppm; in assay [2] (5. Fist step of kilning) it was 0.3 ppm; in assay [2] (6. Second step of kilning) it was 0.3 ppm. Also, in assay [2] (7. Third step of kilning), the “DON levels on "H" process (b)” value came to 0.4 ppm. For the same compound, the “% DON reduction” value in assay [2] (1. After the first steeping) worked out at 78.1%; in assay [2] (2. After the second steeping), 87.5%; in assay [2] (3. Second day of malting), 87.5%; in assay [2] (4. Fourth day of malting), 87.5%; in assay [2] (5. Fist step of kilning), 90.6%; in assay [2] (6. Second step of kilning), 90.6%. The “% DON reduction” value in assay [2] (7. Third step of kilning) was 87.5%. Also, in the assay with Fusarium, the “Fusarium reduction from seeds” value is not above 50%.
Consider `OCl` [sodium hypochlorite], for which, in assay [3], the “increase of the level of the toxin (DON)” value is 24% and the “level of the toxin (DON) after treatment” value is on record as 1.24 ppm.
